The subject of one series is HCT116^+/+. The experiment in a line: Antiproliferative assay (MTS, 72 h) on HCT116 wild type. Type of series: cell-based, human. The following applies: Homo sapiens, HCT-116; MTS, 72 h incubation; read-out: Activity IC50 HCT116^+/+. As for the experimental part: (§1) All of the synthesized compounds were tested for their antiproliferative activity against human colon cancer (Table 1). We used both the wild-type and p53-negative cell lines (HCT116^+/+ and HCT116^−/−, respectively). Mutations in the TP53 gene are present in more than 50% of all cancers and often specifically correspond to a difficult therapy, resistance or a bad prognosis[60]–[63]. The active compounds were additionally tested for their cytotoxicity against normal human fibroblasts. We used 5-fluorouracil (5-FLU), doxorubicin (DOX) and CP-31398 as the standards. 5-FLU is one of the first antimetabolites that was dedicated for cancer treatment and is still used for a wide range of cancers including colon carcinoma. Doxorubicin is a DNA topoisomerase II poison with a high intercalating potency, which is able to induce apoptosis through the p53 pathway. Although DOX has been described as being ineffective in some p53 mutants, its level of activity against the p53 null lines is similar. CP-31398, on the other hand, is an experimental drug in the clinical phase and its mechanism of action is through the reactivation some of p53 mutants. Its activity against the p53 null cell lines is greatly diminished and is actually lower than its cytotoxicity.
(§2) The human colon cancer cell line HCT116 wild type was obtained from ATCC and the normal human fibroblast cell lines NHDF were obtained from PromoCell. The human colon cancer cell line HCT116 with a p53 deletion (p53^−/−) was kindly provided by Prof. M. Rusin from the Maria Sklodowska-Curie Memorial Cancer Centre and Institute of Oncology in Gliwice, Poland[89]. The cells were grown as monolayer cultures in Dulbecco’s modified Eagle’s medium with the antibiotic gentamicin (200 μL/100 mL medium) in 75 cm^2 flasks (Nunc). The DMEM for the HCT116 were supplemented with 12% heat-inactivated fetal bovine serum (Sigma-Aldrich, St. Louis, MO, USA) and for NHDF with 15% non-inactivated fetal bovine serum (Sigma Aldrich, St. Louis, MO, USA). The cells were cultured under standard conditions at 37 °C in a humidified atmosphere at 5% CO2.
(§3) The cells were seeded in 96-well plates (Nunc) at a density of 5,000 cells/well (HCT116) and 4,000 cells/well (NHDF) and incubated at 37 °C for 24 h. The assay was performed following a 72 h incubation with varying concentrations of the compounds that were being tested. Then, 20 µL of CellTiter 96® AQueous One Solution-MTS (Promega) was added to each well (with 100 µL DMEM without phenol red) and incubated for 1 h at 37 °C. The optical densities of the samples were analyzed at 490 nm using a Synergy 4 multi-plate reader (BioTek, Winooski, VT, USA). The results are expressed as the percentage of the control and were calculated as the inhibitory concentration (IC50) values (using a GraphPad Prism 7). The IC50 parameter was defined as the compound concentration that was necessary to reduce the proliferation of cells to 50% of the untreated control. Each individual compound was tested in triplicate in a single experiment with each experiment being repeated three or four times.

The next series relates to HCT116^−/−. The experiment in a line: Antiproliferative assay (MTS, 72 h) on HCT116 with p53 deletion. The settings on record: Homo sapiens, HCT-116; MTS, 72 h incubation. It is filed as cell-based, human. As for the experimental part:
as §1, §2, §3

In a further series the test system is NHDF. The experiment in a line: Cytotoxicity (MTS, 72 h) against normal human fibroblasts. The settings on record: Homo sapiens, NHDF; MTS, 72 h incubation. It is filed as cell-based. As for the experimental part: as §1, §2, §3

In the case of `COc1ccc(OC)c(NC(=O)c2ccc3ccccc3c2O)c1` [2d, N-(2,5-dimethoxyphenyl)−1-hydroxynaphthalene-2-carboxamide], the melting point lay within 116 to 119 °C. In addition, the IC50 with HCT116^+/+ is more than 25 µM. The IC50 with HCT116^−/− was more than 25 µM.
`COc1cc([N+](=O)[O-])ccc1NC(=O)c1ccc2ccccc2c1O` [2g] returned a melting point of 250 to 253 °C. Moreover, the IC50 in the series on HCT116^+/+ was 2.62 ± 0.85 µM. Also, the IC50 with NHDF is 7.53 ± 2.97 µM. For the same compound, in the series with HCT116^−/−, the IC50 worked out at 3.73 ± 1.09 µM.
In the same order, the values of `COc1ccc([N+](=O)[O-])cc1NC(=O)c1ccc2ccccc2c1O` [2h] are 215 to 218 °C, 7.05 ± 1.75 µM, more than 25 µM and 7.42 ± 2.05 µM.
For `COc1ccc(C)cc1NC(=O)c1ccc2ccccc2c1O` [2j], the melting point lay in the range of 106 to 108 °C. In the series with HCT116^+/+, the IC50 was more than 25 µM. Further, in the series with HCT116^−/−, the IC50 is more than 25 µM.
As for `COc1cccc(C)c1NC(=O)c1ccc2ccccc2c1O` [2k], the melting point was in the range of 177 to 179 °C. Further, the IC50 in the series with HCT116^+/+ is more than 25 µM. For the same compound, the IC50 in the series with HCT116^−/− was more than 25 µM.
`Cc1cc(C)c(NC(=O)c2ccc3ccccc3c2O)c(C)c1` [3g]: the melting point fell in the range of 160 to 163 °C. In addition, the IC50 in the series on HCT116^+/+ was more than 25 µM. The IC50 with HCT116^−/− was more than 25 µM.
In turn, `COc1ccc(C)c(NC(=O)c2ccc3ccccc3c2O)c1` [3h] gave a melting point of 128 to 130 °C. Moreover, the IC50 in the series with HCT116^+/+ came to 11.7 ± 3.81 µM. Moreover, the IC50 in the series with NHDF was more than 25 µM. Also, the IC50 with HCT116^−/− was more than 25 µM.
The compound `Cc1ccc(C(F)(F)F)cc1NC(=O)c1ccc2ccccc2c1O` [3i] showed a melting point of 140 to 143 °C. In the series with HCT116^+/+, the IC50 was 8.41 ± 1.07 µM. In the series with NHDF, the IC50 was more than 25 µM. In addition, the IC50 with HCT116^−/− is 5.08 ± 1.23 µM.
`O=C(Nc1ccc(F)cc1F)c1ccc2ccccc2c1O` [4d] yielded a melting point of 185 to 187 °C. Moreover, the IC50 with HCT116^+/+ was 6.55 ± 0.83 µM. Also, the IC50 in the series with NHDF is more than 25 µM. Further, the IC50 in the series with HCT116^−/− was 11.4 ± 1.92 µM.
The compound `O=C(Nc1cc(F)ccc1F)c1ccc2ccccc2c1O` [4e] gave a melting point of 153 to 155 °C. Moreover, the IC50 with HCT116^+/+ came out at 4.76 ± 0.76 µM. Besides, the IC50 in the series with NHDF was more than 25 µM. Moreover, the IC50 with HCT116^−/− amounted to 15.1 ± 6.75 µM.
Consider `O=C(Nc1c(F)cccc1F)c1ccc2ccccc2c1O` [4f], for which the melting point lay in the range of 197 to 200 °C. Further, in the series with HCT116^+/+, the IC50 was more than 25 µM. For the same compound, the IC50 in the series with HCT116^−/− is more than 25 µM.
The compound `O=C(Nc1ccc(F)c(F)c1)c1ccc2ccccc2c1O` [4g] showed a melting point of 153 to 156 °C. The IC50 in the series on HCT116^+/+ was determined as 3.04 ± 0.06 µM. In addition, the IC50 with HCT116^−/− was 5.88 ± 0.5 µM.
The compound `O=C(Nc1cc(F)cc(F)c1)c1ccc2ccccc2c1O` [4h] came in with a melting point of 199 to 200 °C. For the same compound, the IC50 with HCT116^+/+ came to 1.79 ± 0.44 µM. The IC50 in the series with NHDF stood at 9.87 ± 0.66 µM. Further, the IC50 in the series on HCT116^−/− came out at 2.24 ± 0.3 µM.
Taken in the same sequence, the figures for `O=C(Nc1ccc(F)c(F)c1F)c1ccc2ccccc2c1O` [4i] were 173 to 175 °C, 4.28 ± 0.66 µM, more than 25 µM and 4.43 ± 0.66 µM.
`O=C(Nc1cc(F)c(F)cc1F)c1ccc2ccccc2c1O` [4j] displayed a melting point of 201 to 204 °C. Moreover, the IC50 in the series on HCT116^+/+ is 1.87 ± 0.35 µM. Moreover, the IC50 in the series with NHDF turned out to be 24.52 ± 0.03 µM. Also, in the series on HCT116^−/−, the IC50 came out at 4.75 ± 0.05 µM.
Regarding `O=C(Nc1c(F)cc(F)cc1F)c1ccc2ccccc2c1O` [4k], the melting point was 180 to 184 °C. Further, the IC50 with HCT116^+/+ was more than 25 µM. Also, the IC50 with HCT116^−/− was more than 25 µM.
Consider `O=C(Nc1cc(F)c(F)c(F)c1)c1ccc2ccccc2c1O` [4l], for which the melting point lay within 242 to 247 °C. Further, the IC50 in the series with HCT116^+/+ was determined as 1.19 ± 0.31 µM. The IC50 in the series on NHDF stood at 10 ± 0.54 µM. Further, the IC50 in the series on HCT116^−/− was determined as 1.42 ± 0.25 µM.
In the same order, the values of `O=C(Nc1c(F)c(F)cc(F)c1F)c1ccc2ccccc2c1O` [4m] are 160 to 163 °C, 12 ± 0.92 µM, more than 25 µM and more than 25 µM.

As usually defined, the melting point is the temperature of the solid-liquid transition.
